Experiments:
Type in all cases: cell-based, human
[1] = tested on: TALL-104 effector cells on target K-562 cells; assay: Calcein AM release assay (cytotoxicity); settings: effector cells treated 10 µM, 6 h
Protocol: (§1) Effector cells (NK-92 or TALL-104; 1 × 10^6/ml) were treated with E-64d (10 µM) or compound 7 (10 µM) for 6 h. NK-92 cells were pre-treated with 1000 IU IL2/mL overnight prior to the addition of inhibitors. Effector cells were added to a 96-well U-bottom plate to achieve a selected effector-to-target ratio (E:T). Target K-562 cells were labelled with 15 µM Calcein-AM (Sigma) in serum-free RPMI 1640 medium for 30 min at 37 °C. Cells were then washed twice and resuspended in complete RPMI 1640 medium. Target cells (n = 5000) were added to the effectors. The plate was centrifuged at 200 × g for 1 min and incubated at 37 °C and 5 % CO2 for 4 h. After incubation, the plate was centrifuged at 700 × g for 5 min. The supernatant (50 µL) was transferred to a new microtiter plate to measure the fluorescence of the released Calcein-AM with a Tecan M1000 microtiter plate reader using 496 nm excitation and 516 nm emission filters. The percentage of cytotoxicity was calculated as follows: 100(test release-spontaneous release)/(total release-spontaneous release). Spontaneous release was measured in wells containing only target cells. For total release, 2 % Triton X-100 was added to the wells to achieve lysis of target cells. Lytic units (LU) were calculated using the inverse of the number of effector cells needed to lyse 30 % of the target cells multiplied by 100.

[2] = tested on: NK-92 effector cells on target K-562 cells; assay: Calcein AM release assay (cytotoxicity); settings: effector cells treated 10 µM, 6 h
Protocol: as §1

[3] = tested on: U-937-derived macrophages; assay: Intracellular elastin-FITC degradation; settings: 10 μM, 24 h, vs DMSO
Protocol: To evaluate the effect of the inhibitors on the elastolytic activity of cathepsin V, we assessed the intracellular degradation of elastin-FITC, a soluble bovine neck ligament elastin that is heavily labeled with FITC such that the fluorescence of the conjugate is quenched. Upon proteolysis, fluorescence is recovered and can be detected. U-937 cells, differentiated into macrophage-like cells, were seeded (at 1 × 10^5 cells/well) into 24-well plates with 500 μL of medium supplemented with 50 nM PMA. Inhibitors or DMSO (0.1 %) and elastin-FITC (10 μg/mL; AnaSpec, Fermont, CA, USA) were added to the medium and incubated for 24 h at 37 °C. Cells were detached and washed with PBS, and propidium iodide (BD Bioscience) was added to exclude dead cells. Therefore, green fluorescence arising from elastin-FITC degradation was monitored only for viable cells. The measurement was performed using a FACSCalibur instrument (BD Biosciences).

MCF7 cells = assay: Proliferation assay (CFSE-labeled cells, flow cytometry); settings: 72 h; E-64d 10 μM, pepstatin 20 μM, LHVS 10 nM, CLIK-148 1 μM
Protocol: To assess the effect of cathepsin V inhibitors on cell proliferation, MCF7 cells were fluorescently labeled with carboxyfluorescein succinimidyl ester (CFSE; ImmunoChemistry Technologies, Bloomington, MN, USA) in PBS for 15 min at room temperature according to the manufacturer’s instructions. Cells were washed with PBS, resuspended in complete medium, seeded (at 4 × 10^4 cells/well) into 24-well plates, and allowed to adhere overnight. Cells were then treated with the following inhibitors: compound 7 (10 μM), E-64d (10 μM), CLIK-148 (1 μM), LHVS (10 nM), pepstatin (20 μM), their combinations, or DMSO (0.1 %) in 500 μL of medium for 72 h at 37 °C. To prepare cells for flow cytometry, cells were detached and transferred to round-bottomed polystyrene tubes and washed with PBS. Before measurement, 7-aminoactinomycin D (7-AAD; ImmunoChemistry Technologies, Bloomington, MN, USA) was added according to the manufacturer’s instructions to exclude dead cells. Therefore, the green fluorescence arising from CFSE was monitored only for viable cells. The measurement was performed using a FACSCalibur instrument (BD Biosciences, San Jose, CA, USA).

[4] = tested on: cystatin F in U-937 cells; assay: Western blot of cystatin F dimer-to-monomer ratio; settings: U-937 cell lysates, 6 h treatment, 10 and 20 μM, vs control
Protocol: Cells were treated with E-64d or compound 7 (both at 10 µM or 20 µM) for 6 h. After treatment, whole-cell lysates were prepared in RIPA buffer supplemented with cOmplete™ Protease Inhibitor Cocktail (Roche, Basel, Switzerland) and centrifuged at 16 000 × g for 20 min at 4 °C. Total protein concentration was determined using the DC assay (Biorad, Hercules, CA, USA). Proteins were separated by non-reducing SDS-PAGE and transferred to a nitrocellulose membrane using the TransBlot Turbo System (Biorad). After blocking, the membranes were incubated with primary antibodies overnight at 4 °C and with secondary antibodies for 1 h at room temperature. Bands were visualized using Clarity Max Western ECL substrate (Biorad), and protein loading was checked using Stain Free technology (Biorad). Images were acquired using the ChemiDoc ML Imaging System (Biorad), and quantification analysis was performed using Image Lab software (Biorad).
The following primary antibodies were used: rabbit anti-cystatin F (1:375, HPA040442, Sigma), goat anti-cathepsin V (1:200, AF 1080, R&D, USA), and mouse anti-GAPDH (1:3000, 10494-I-AP, Proteintech, USA). […]

## CCOC(=O)[C@H]1O[C@@H]1C(=O)N[C@@H](CC(C)C)C(=O)NCCC(C)C [Compound E-64d, reference compound]
[1]
  cytotoxicity of TALL-104 cells (target cell killing): decreased cytotoxic function
[2]
  cytotoxicity of NK-92 cells (target cell killing): decreased cytotoxic function
[3]
  decrease of elastin-FITC degradation: 18.4 ± 7.0%
MCF7 cells
  effect on cell proliferation (relative CFSE fluorescence intensity vs DMSO): no effects on cell proliferation
[4]
  cystatin F dimer-to-monomer ratio: increased
